These are literature values, as cited in patent publication US7998710B2, “Process for purifying difructose dianhydride III” (Nippon Beet Sugar Mfg., Co., Ltd., priority 2003, dated 2011).

SMILES strings stand for the structures.

The conditions of data set [1]: relative to sucrose.
Data set [2] relates to absorption of minerals such as Ca. To be noted: Patent Document 1.

As to `OC[C@H]1O[C@@]2(CO[C@]3(CO)O[C@H](CO)[C@@H](O)[C@@H]3O2)[C@@H](O)[C@@H]1O` [DFA III, α-D-fructofuranose-β-D-fructofuranose-2′,1:2,3′-dianhydride], in data set [1], the “solubility in water compared with that of sucrose” value was 90-95%. The “effect of promoting the absorption of minerals such as Ca” value in data set [2] is listed as “promoting the absorption of minerals such as Ca”.
